Some test systems named below: HOP-92 NSCLC; HT29 colon; OVCAR-5 ovarian; NCI-H23 lung; SK-MEL-28 melanoma; HOP-62 NSCLC; EKVX NSCLC; HS 578T breast; SR leukemia; A498 renal.
Test in all cases: inhibition of tumour cell growth, NCI panel, 48 h

These results are taken from PubChem BioAssay (NCI).

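Where inhibition never reached the appropriate level, the endpoint shown equals the highest concentration tested. Otherwise, values were interpolated linearly from a five-concentration, 48-hour dose response in 96-well plates. TGI marks complete inhibition of growth.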

As for `CC(C)C(=O)/C=C/c1c(Cl)cccc1Cl`, the TGI with HOP-92 NSCLC was 26.6 µM; in the assay with HT29 colon, 11.2 µM; with OVCAR-5 ovarian, 11.3 µM; in the assay on NCI-H23 lung, 7.24 µM; in the assay with SK-MEL-28 melanoma, 20.5 µM; in the assay with HOP-62 NSCLC it was 17.7 µM. The TGI with EKVX NSCLC was 26 µM; with HS 578T breast, 9.72 µM; with SR leukemia, more than 100 µM; in the assay with A498 renal, 35.5 µM.

In the case of `Cn1c(=S)[nH]c(N)c(Cc2ccccc2)c1=O`, the TGI in the assay on HOP-92 NSCLC is 97.1 µM; in the assay on HT29 colon, more than 100 µM; in the assay on OVCAR-5 ovarian it was more than 100 µM; with NCI-H23 lung, more than 100 µM; in the assay with SK-MEL-28 melanoma, more than 100 µM; in the assay on HOP-62 NSCLC it was more than 100 µM. In addition, the TGI with EKVX NSCLC, in the assay with HS 578T breast, with SR leukemia and in the assay on A498 renal was more than 100 µM throughout.

Take `COc1ccc2nc3cc(Cl)ccc3c(NCCCCCC(=O)NC(COc3ccc4ccc5cccnc5c4n3)COc3ccc4ccc5cccnc5c4n3)c2c1`: the TGI was 44.1 µM with HOP-92 NSCLC; more than 100 µM with HT29 colon; 47.9 µM in the assay with OVCAR-5 ovarian; 48.6 µM in the assay on NCI-H23 lung; 49 µM in the assay on SK-MEL-28 melanoma; more than 100 µM in the assay with HOP-62 NSCLC. Further, the TGI in the assay with EKVX NSCLC is 58 µM; in the assay with HS 578T breast, 73.9 µM; with SR leukemia it was 12.3 µM; with A498 renal it was 31 µM.

Consider `CN(C)CC(C)(C)CN1c2ccccc2Sc2ccccc21`, for which the TGI with HOP-92 NSCLC worked out at 24.1 µM; in the assay on HT29 colon, 22.6 µM; with OVCAR-5 ovarian, 29.9 µM; in the assay with NCI-H23 lung, 30.2 µM; with SK-MEL-28 melanoma, 26.8 µM; in the assay on HOP-62 NSCLC, 25.5 µM. For the same compound, the TGI in the assay with EKVX NSCLC came to 28.8 µM; with HS 578T breast, 28.5 µM; in the assay with SR leukemia, 23.4 µM; in the assay with A498 renal, 26.4 µM.

`O=c1c2cc([N+](=O)[O-])ccc2n2n1CCCCC2`: the TGI in the assay with HOP-92 NSCLC, in the assay with HT29 colon, with OVCAR-5 ovarian, in the assay with NCI-H23 lung, in the assay with SK-MEL-28 melanoma and in the assay on HOP-62 NSCLC was more than 100 µM in each case. Further, the TGI in the assay on EKVX NSCLC, with HS 578T breast, in the assay on SR leukemia and in the assay on A498 renal was more than 100 µM throughout.

As for `Cn1c(=O)cc(Nc2ccc(N)cc2)[nH]c1=O`, the TGI in the assay with HOP-92 NSCLC, with HT29 colon, with OVCAR-5 ovarian, in the assay on NCI-H23 lung, with SK-MEL-28 melanoma and with HOP-62 NSCLC was more than 100 µM in each case. Besides, the TGI with EKVX NSCLC, in the assay on HS 578T breast, with SR leukemia and with A498 renal was more than 100 µM throughout.

`c1ccc2c(c1)-c1ccccc1C2NC1=NCCO1`: the TGI in the assay with HOP-92 NSCLC is 36.3 µM; with HT29 colon, 60.6 µM; with OVCAR-5 ovarian it was more than 100 µM; in the assay on NCI-H23 lung, more than 100 µM; in the assay with SK-MEL-28 melanoma it was 55.7 µM; in the assay on HOP-62 NSCLC it was 46.5 µM. For the same compound, the TGI is more than 100 µM with EKVX NSCLC, more than 100 µM with HS 578T breast, 79.3 µM in the assay with SR leukemia and 34 µM in the assay with A498 renal.

As to `CCCCCCCCCCCCc1ccsc1-c1ccc(-c2ccc(-c3sccc3CCCCCCCCCCCC)s2)s1`, the TGI with HOP-92 NSCLC, in the assay with HT29 colon, in the assay with OVCAR-5 ovarian, with NCI-H23 lung, with SK-MEL-28 melanoma and with HOP-62 NSCLC was more than 100 µM in each case. In addition, the TGI with EKVX NSCLC, with HS 578T breast, in the assay with SR leukemia and in the assay with A498 renal was more than 100 µM each time.

As to `N=c1oc2cc(O)ccc2cc1C(=O)Nc1cccc2ccccc12`, the TGI was 14.5 µM in the assay with HOP-92 NSCLC; 26.9 µM in the assay with HT29 colon; 36.3 µM in the assay with OVCAR-5 ovarian; 12.9 µM with NCI-H23 lung; 34.4 µM with SK-MEL-28 melanoma; more than 44 µM in the assay on HOP-62 NSCLC. Also, the TGI in the assay with EKVX NSCLC was 14.6 µM; with HS 578T breast it was more than 100 µM; with SR leukemia, 7.83 µM; in the assay with A498 renal, 18.7 µM.

As to `Cc1c(C#N)c2nc3ccccc3n2c(=O)/c1=C/Nc1ccc(Cl)cc1`, the TGI in the assay with HOP-92 NSCLC is 67.5 µM; in the assay with HT29 colon it was more than 100 µM; with OVCAR-5 ovarian it was more than 100 µM; in the assay with NCI-H23 lung, 59.8 µM; in the assay on SK-MEL-28 melanoma, more than 100 µM; with HOP-62 NSCLC, 33.1 µM. Further, the TGI in the assay on EKVX NSCLC is more than 100 µM; in the assay on HS 578T breast, 54.5 µM; with SR leukemia, more than 100 µM; in the assay with A498 renal, 72.5 µM.

Regarding `Cc1ccc(-c2cc(=O)c(=O)[nH][nH]2)cc1`, the TGI in the assay with HOP-92 NSCLC, in the assay on HT29 colon, in the assay with OVCAR-5 ovarian, in the assay on NCI-H23 lung, in the assay on SK-MEL-28 melanoma and in the assay with HOP-62 NSCLC was more than 100 µM in each case. In addition, the TGI in the assay with EKVX NSCLC, in the assay with HS 578T breast, in the assay on SR leukemia and in the assay with A498 renal was more than 100 µM in each case.
